Data set [1] deals with Mus musculus. Kind of data set: Anti-tremorine activity against sc dosed albino mouse assessed as normalized dose for reversal of tremorine-induced spontaneous activity depression. In kind it is functional.
Data set [2] deals with Mus musculus. Briefly: Toxicity in sc dosed albino mouse assessed as mydriasis. The format is organism-based. The conditions noted are these: in vivo.

The results in this text go back to ChEMBL document CHEMBL3272126 (J Med Chem, 1977).

Consider `CN1[C@@H]2CC[C@H]1CC(OC(=O)[C@H](CO)c1ccccc1)C2` (stereo partly drawn) [ENDO-ATROPINE], for which the ND in the data set on Mus musculus [1] stood at 2.2 mg/kg. For the same compound, the ED50 – broadly, the midpoint of the dose-response relation – in the data set on Mus musculus [2] was 0.061 mg/kg.

For the compound `CN1[C@@H]2C[C@@H](OC(=O)[C@H](CO)c3ccccc3)C[C@H]1[C@@H]1O[C@@H]12` [SCOPOLAMINE], the ND with Mus musculus [1] worked out at 1.3 mg/kg. Also, in the data set on Mus musculus [2], the 50% effective dose (ED50) came to 0.012 mg/kg.
